Results from patent publication US20230373985A1 (Origenis Gmbh, priority 2020, published 2023).

Legend:
[1] = molecular target: T1, G2019S human LRRK2, catalytic site (Homo sapiens, UniProt Q5S007, G2019S); experiment: TR-FRET LanthaScreen Eu Kinase Binding Assay, LRRK2 G2019S; details: LRRK2(G2019); one range stated for wt and G2019; read-out: IC50, Activity Toward LRRK2(G2019)
T1 construct: G2019S human LRRK2, catalytic site; purchased ThermoFisher
Summary of the method: (§1)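 NUAK1: 8 nM enzyme, 2 nM Eu-anti-His antibody, 5 nM Tracer 236. LRRK2 wt/G2019S: 5 nM enzyme, 2 nM Eu-anti-GST antibody, 10 nM Tracer 236. Kinase Buffer A, 1 h RT, TR-FRET ratio.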

[2] = molecular target: T2, wt human TYK2, catalytic site (Homo sapiens, UniProt P29597); experiment: HTRF KinEASE assay, TYK2; assay type: biochemical; details: 1 μM ATP; read-out: IC50, Activity Toward TYK2
T2 construct: wt human TYK2, catalytic site; purchased SignalChem
T2 sequence (P29597 897-1176 limits assumed): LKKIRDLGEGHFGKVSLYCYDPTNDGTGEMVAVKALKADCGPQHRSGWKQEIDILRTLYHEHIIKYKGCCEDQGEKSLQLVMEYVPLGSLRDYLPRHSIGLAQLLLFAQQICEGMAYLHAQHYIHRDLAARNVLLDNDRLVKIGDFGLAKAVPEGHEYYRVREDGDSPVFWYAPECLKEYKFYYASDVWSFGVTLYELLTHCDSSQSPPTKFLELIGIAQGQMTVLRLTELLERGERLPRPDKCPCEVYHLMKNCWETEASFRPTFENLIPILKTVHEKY
Summary of the method: (§2)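 Kinase reaction run at room temperature for at least 30 min: 2 nM TYK2 with 1 μM ATP, or 1 nM JAK2 with 100 μM ATP, each with 1 μM biotin-TK substrate. Phosphorylation detected by HTRF (60 min antibody/XL665) and evaluated from emission ratios.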

[3] = molecular target: T3, wt human JAK1, catalytic site (Homo sapiens, UniProt P23458); experiment: HTRF KinEASE assay, JAK1; assay type: biochemical; details: 2.5 μM ATP; read-out: IC50, Activity Toward JAK1
T3 construct: wt human JAK1, catalytic site; purchased ThermoFisher
T3 sequence (P23458 875-1153 limits assumed): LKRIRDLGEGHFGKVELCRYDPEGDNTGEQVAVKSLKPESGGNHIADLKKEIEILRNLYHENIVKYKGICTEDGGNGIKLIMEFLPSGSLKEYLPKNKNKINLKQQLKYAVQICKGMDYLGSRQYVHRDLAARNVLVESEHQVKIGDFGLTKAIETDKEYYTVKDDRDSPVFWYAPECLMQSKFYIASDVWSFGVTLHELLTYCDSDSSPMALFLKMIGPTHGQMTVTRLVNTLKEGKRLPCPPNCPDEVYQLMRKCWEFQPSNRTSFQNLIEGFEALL
Summary of the method: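 Compounds in DMSO dilution were mixed with kinase, biotin-TK substrate and ATP and reacted for ≥30 min at room temperature. Detection reagents (antibody, streptavidin-XL665) were read 60 min later as HTRF, with emission ratios analysed per KinEASE protocol.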

[4] = molecular target: T4, wt human LRRK2, catalytic site (Homo sapiens, UniProt Q5S007); experiment: TR-FRET LanthaScreen Eu Kinase Binding Assay, LRRK2 wt; details: one range stated for wt and G2019, read-out: IC50, Activity Toward LRRK2(Wt)
T4 construct: 5 nM wt human LRRK2, catalytic site; purchased ThermoFisher
T4 sequence (Q5S007 970-2527 limits assumed): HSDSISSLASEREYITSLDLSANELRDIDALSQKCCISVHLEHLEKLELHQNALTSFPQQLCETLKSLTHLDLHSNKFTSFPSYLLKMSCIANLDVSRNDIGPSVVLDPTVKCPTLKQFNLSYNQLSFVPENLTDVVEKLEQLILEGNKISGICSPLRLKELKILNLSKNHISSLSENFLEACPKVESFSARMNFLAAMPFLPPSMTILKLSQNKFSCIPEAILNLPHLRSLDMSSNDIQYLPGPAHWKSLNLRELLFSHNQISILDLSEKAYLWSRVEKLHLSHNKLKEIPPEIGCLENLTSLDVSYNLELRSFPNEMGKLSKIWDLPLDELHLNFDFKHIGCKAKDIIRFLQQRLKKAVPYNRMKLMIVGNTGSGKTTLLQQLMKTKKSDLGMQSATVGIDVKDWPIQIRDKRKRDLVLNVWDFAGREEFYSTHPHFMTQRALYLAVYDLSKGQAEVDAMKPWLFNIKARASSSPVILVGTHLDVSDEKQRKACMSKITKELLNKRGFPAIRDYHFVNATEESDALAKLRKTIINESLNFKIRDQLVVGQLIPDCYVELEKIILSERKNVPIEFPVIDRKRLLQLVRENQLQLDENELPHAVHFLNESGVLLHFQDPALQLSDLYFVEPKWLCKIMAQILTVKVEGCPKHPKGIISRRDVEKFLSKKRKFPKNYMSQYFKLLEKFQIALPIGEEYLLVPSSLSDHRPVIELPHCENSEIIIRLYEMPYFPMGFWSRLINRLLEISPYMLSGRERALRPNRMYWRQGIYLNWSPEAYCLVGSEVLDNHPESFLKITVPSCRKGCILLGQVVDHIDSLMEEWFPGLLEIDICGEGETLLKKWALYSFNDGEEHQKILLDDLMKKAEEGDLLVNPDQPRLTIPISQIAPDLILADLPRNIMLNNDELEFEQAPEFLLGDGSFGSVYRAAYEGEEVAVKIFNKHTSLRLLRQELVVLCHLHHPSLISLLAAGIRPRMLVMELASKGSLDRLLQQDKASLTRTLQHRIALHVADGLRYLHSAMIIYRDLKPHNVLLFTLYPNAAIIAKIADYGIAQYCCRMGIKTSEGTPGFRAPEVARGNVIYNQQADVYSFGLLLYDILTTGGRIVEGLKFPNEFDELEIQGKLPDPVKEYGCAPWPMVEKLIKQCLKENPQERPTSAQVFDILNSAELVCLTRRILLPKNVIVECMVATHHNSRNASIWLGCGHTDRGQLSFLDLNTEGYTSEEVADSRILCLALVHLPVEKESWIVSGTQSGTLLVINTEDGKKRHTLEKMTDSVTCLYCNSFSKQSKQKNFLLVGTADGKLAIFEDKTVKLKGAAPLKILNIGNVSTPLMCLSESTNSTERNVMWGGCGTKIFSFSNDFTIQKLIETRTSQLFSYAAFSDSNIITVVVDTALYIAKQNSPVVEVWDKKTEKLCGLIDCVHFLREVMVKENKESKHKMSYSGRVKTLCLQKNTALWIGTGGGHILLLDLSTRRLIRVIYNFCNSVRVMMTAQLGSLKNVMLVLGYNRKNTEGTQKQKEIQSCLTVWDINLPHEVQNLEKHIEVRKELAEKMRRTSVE
Summary of the method: as §1

[5] = molecular target: T5, wt human NUAK1, full length (Homo sapiens, UniProt O60285); experiment: TR-FRET LanthaScreen Eu Kinase Binding Assay, NUAK1; details: read-out: IC50, Activity Toward NUAK1
T5 construct: 8 nM wt human NUAK1, full length (ThermoFisher/USA); purchased ThermoFisher
T5 sequence (O60285 1-661): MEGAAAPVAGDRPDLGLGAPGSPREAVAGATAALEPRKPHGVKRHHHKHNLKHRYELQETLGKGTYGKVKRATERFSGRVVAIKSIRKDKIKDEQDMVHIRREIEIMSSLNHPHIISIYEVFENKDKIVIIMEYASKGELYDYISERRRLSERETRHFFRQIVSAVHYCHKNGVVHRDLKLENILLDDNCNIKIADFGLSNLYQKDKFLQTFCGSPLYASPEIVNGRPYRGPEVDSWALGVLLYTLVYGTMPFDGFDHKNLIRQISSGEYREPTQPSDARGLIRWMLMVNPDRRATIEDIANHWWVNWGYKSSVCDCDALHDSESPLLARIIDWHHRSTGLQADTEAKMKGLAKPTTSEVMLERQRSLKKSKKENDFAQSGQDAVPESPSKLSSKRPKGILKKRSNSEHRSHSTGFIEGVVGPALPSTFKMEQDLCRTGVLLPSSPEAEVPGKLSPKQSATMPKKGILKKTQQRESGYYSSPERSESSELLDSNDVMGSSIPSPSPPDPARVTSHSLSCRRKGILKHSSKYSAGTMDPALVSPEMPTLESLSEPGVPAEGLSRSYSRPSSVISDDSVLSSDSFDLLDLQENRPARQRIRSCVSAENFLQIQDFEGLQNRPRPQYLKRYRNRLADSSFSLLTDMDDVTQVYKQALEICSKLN
Summary of the method: as §1

[6] = molecular target: T6, wt human JAK2, catalytic site (Homo sapiens, UniProt O60674); experiment: HTRF KinEASE assay, JAK2; assay type: biochemical; details: assay format not given (Z'-LYTE or HTRF KinEASE); read-out: IC50, Activity Toward JAK2
T6 construct: wt human JAK2, catalytic site; purchased SignalChem
T6 sequence (O60674 849-1124 limits assumed): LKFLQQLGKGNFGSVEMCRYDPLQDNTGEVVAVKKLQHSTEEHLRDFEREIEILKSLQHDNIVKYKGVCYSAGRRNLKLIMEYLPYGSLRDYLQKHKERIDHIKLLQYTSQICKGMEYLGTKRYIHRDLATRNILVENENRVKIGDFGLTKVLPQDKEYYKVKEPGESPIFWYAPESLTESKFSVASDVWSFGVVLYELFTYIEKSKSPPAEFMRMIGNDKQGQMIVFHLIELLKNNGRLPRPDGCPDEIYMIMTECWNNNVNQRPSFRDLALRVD
Summary of the method: as §2

T1 sequence (Q5S007 970-2527 G2019S limits assumed): as the sequence (Q5S007 970-2527 limits assumed) above, with G1050S counted along it

Compound	IC50 [1]	IC50 [2]	IC50 [3]	IC50 [4]	IC50 [5]	IC50 [6]
NC(=O)c1nn(-c2c(F)cccc2F)cc1Nc1ccc(C(=O)N2CCOCC2)cc1 [compound 12, 1-(2,6-difluorophenyl)-4-((4-(morpholine-4-carbonyl)phenyl)amino)-1H-pyrazole-3-carboxamide]	0.01 to 0.1 µM	0.01 to 0.1 µM	0.1 to 1 µM	0.01 to 0.1 µM	0.1 to 1 µM	0.1 to 1 µM
NC(=O)c1nn(-c2c(F)cccc2F)cc1Nc1ccc(C(=O)NC2CCOCC2)cc1 [compound 13, 1-(2,6-difluorophenyl)-4-((4-((tetrahydro-2H-pyran-4-yl)carbamoyl)phenyl)amino)-1H-pyrazole-3-carboxamide]	0.1 to 1 µM	0.01 to 0.1 µM	0.1 to 1 µM	0.1 to 1 µM	0.01 to 0.1 µM	0.1 to 1 µM
NC(=O)c1nn(-c2c(F)cccc2Cl)cc1Nc1ccc(C(=O)N2CCOCC2)cc1 [compound 22, 1-(2-chloro-6-fluorophenyl)-4-((4-(morpholine-4-carbonyl)phenyl)amino)-1H-pyrazole-3-carboxamide]	0.1 to 1 µM	< 0.01 µM	0.01 to 0.1 µM	0.1 to 1 µM	0.01 to 0.1 µM	0.1 to 1 µM
CN1CCN(C(=O)c2ccc(Nc3cn(-c4c(F)cccc4Cl)nc3C(N)=O)cc2)CC1 [compound 36, 1-(2-chloro-6-fluorophenyl)-4-((4-(4-methylpiperazine-1-carbonyl)phenyl)amino)-1H-pyrazole-3-carboxamide]	0.01 to 0.1 µM	< 0.01 µM	0.01 to 0.1 µM	0.01 to 0.1 µM	0.1 to 1 µM	0.1 to 1 µM
NC(=O)c1nn(-c2c(F)cccc2Cl)cc1Nc1ccc(-c2nnc3n2CCCC3)cc1 [compound 58, 1-(2-chloro-6-fluorophenyl)-4-((4-(5,6,7,8-tetrahydro-[1,2,4]triazolo[4,3-a]pyridin-3-yl)phenyl)amino)-1H-pyrazole-3-carboxamide]	0.01 to 0.1 µM	< 0.01 µM	0.01 to 0.1 µM	0.01 to 0.1 µM	0.1 to 1 µM	0.1 to 1 µM
NC(=O)c1nn(-c2c(F)cccc2Cl)cc1Nc1ccc(-c2nnc3n2CCOC3)cc1 [compound 62, 1-(2-chloro-6-fluorophenyl)-4-((4-(6,8-dihydro-5H-[1,2,4]triazolo[3,4-c][1,4]oxazin-3-yl)phenyl)amino)-1H-pyrazole-3-carboxamide]	0.01 to 0.1 µM	< 0.01 µM	0.1 to 1 µM	0.01 to 0.1 µM	0.1 to 1 µM	0.1 to 1 µM
CCn1cnnc1-c1ccc(Nc2cn(-c3c(Cl)cccc3Cl)nc2C(N)=O)cc1 [compound 87, 1-(2,6-dichlorophenyl)-4-((4-(4-ethyl-4H-1,2,4-triazol-3-yl)phenyl)amino)-1H-pyrazole-3-carboxamide]	0.1 to 1 µM	< 0.01 µM	0.01 to 0.1 µM	0.1 to 1 µM	0.1 to 1 µM	0.1 to 1 µM
Cn1cnnc1-c1ccc(Nc2cn(-c3c(Cl)cccc3Cl)nc2C(N)=O)cc1 [compound 88, 1-(2,6-dichlorophenyl)-4-((4-(4-methyl-4H-1,2,4-triazol-3-yl)phenyl)amino)-1H-pyrazole-3-carboxamide]	0.1 to 1 µM	< 0.01 µM	0.01 to 0.1 µM	0.1 to 1 µM	0.1 to 1 µM	0.1 to 1 µM
NC(=O)c1nn(-c2c(Cl)cccc2Cl)nc1Nc1ccc(C(=O)N2CC[C@@H](F)C2)cc1 [compound 106, 2-(2,6-Dichloro-phenyl)-5-[4-((R)-3-fluoro-pyrrolidine-1-carbonyl)-phenylamino]-2H-[1,2,3]triazole-4-carboxylic acid amide]		< 0.01 µM	0.01 to 0.1 µM		0.1 to 1 µM	0.1 to 1 µM
NC(=O)c1nn(-c2c(Cl)cccc2Cl)cc1Nc1ccc(-c2nncn2C2CCCC2)cc1 [compound 202, 4-((4-(4-cyclopentyl-4H-1,2,4-triazol-3-yl)phenyl)amino)-1-(2,6-dichlorophenyl)-1H-pyrazole-3-carboxamide]	0.1 to 1 µM	0.01 to 0.1 µM	0.1 to 1 µM	0.1 to 1 µM	0.1 to 1 µM	0.1 to 1 µM
CC(C)Cn1cnnc1-c1ccc(Nc2cn(-c3c(Cl)cccc3Cl)nc2C(N)=O)cc1 [compound 203, 1-(2,6-dichlorophenyl)-4-((4-(4-isobutyl-4H-1,2,4-triazol-3-yl)phenyl)amino)-1H-pyrazole-3-carboxamide]		< 0.01 µM	0.01 to 0.1 µM		0.1 to 1 µM	0.1 to 1 µM
CC(C)n1cnnc1-c1ccc(Nc2cn(-c3c(Cl)cccc3Cl)nc2C(N)=O)cc1 [compound 205, 1-(2,6-dichlorophenyl)-4-((4-(4-isopropyl-4H-1,2,4-triazol-3-yl)phenyl)amino)-1H-pyrazole-3-carboxamide]	0.1 to 1 µM	0.01 to 0.1 µM	0.01 to 0.1 µM	0.1 to 1 µM	0.1 to 1 µM	0.1 to 1 µM
NC(=O)c1nn(-c2c(Cl)cccc2Cl)cc1Nc1ccc(-c2nncn2C2CC2)cc1 [compound 206, 4-((4-(4-cyclopropyl-4H-1,2,4-triazol-3-yl)phenyl)amino)-1-(2,6-dichlorophenyl)-1H-pyrazole-3-carboxamide]	0.1 to 1 µM	0.01 to 0.1 µM	0.01 to 0.1 µM	0.1 to 1 µM	0.1 to 1 µM	0.1 to 1 µM
CCn1cnnc1-c1ccc(Nc2cn(-c3c(F)cccc3Cl)nc2C(N)=O)cc1 [compound 207, 1-(2-chloro-6-fluorophenyl)-4-((4-(4-ethyl-4H-1,2,4-triazol-3-yl)phenyl)amino)-1H-pyrazole-3-carboxamide]	0.1 to 1 µM	< 0.01 µM	0.01 to 0.1 µM	0.1 to 1 µM	0.1 to 1 µM	0.1 to 1 µM
CC(C)n1ncnc1-c1ccc(Nc2cn(-c3c(F)cccc3Cl)nc2C(N)=O)cc1 [compound 211, 1-(2-chloro-6-fluorophenyl)-4-((4-(1-isopropyl-1H-1,2,4-triazol-5-yl)phenyl)amino)-1H-pyrazole-3-carboxamide]	0.01 to 0.1 µM	0.01 to 0.1 µM	0.1 to 1 µM	0.01 to 0.1 µM	0.1 to 1 µM	0.1 to 1 µM
NC(=O)c1nn(-c2c(Cl)cccc2Cl)cc1Nc1ccc(-c2nncn2CC(F)F)cc1 [compound 212, 1-(2,6-dichlorophenyl)-4-((4-(4-(2,2-difluoroethyl)-4H-1,2,4-triazol-3-yl)phenyl)amino)-1H-pyrazole-3-carboxamide]	0.1 to 1 µM	< 0.01 µM	0.01 to 0.1 µM	0.1 to 1 µM	0.1 to 1 µM	0.1 to 1 µM
NC(=O)c1nn(-c2c(F)cccc2Cl)cc1Nc1ccc(C(=O)N2CCCC2)cc1 [compound 227, 1-(2-chloro-6-fluorophenyl)-4-((4-(pyrrolidine-1-carbonyl)phenyl)amino)-1H-pyrazole-3-carboxamide]	0.1 to 1 µM	< 0.01 µM	0.01 to 0.1 µM	0.1 to 1 µM	0.01 to 0.1 µM	0.1 to 1 µM
